Results: PMC3510187, “1-Anilino-8-Naphthalene Sulfonate (ANS) Is Not a Desirable Probe for Determining the Molten Globule State of Chymopapain” (PLoS ONE, 2012)

Target: T1, chymopapain (Carica papaya, UniProt P14080)
T1 construct: native mature enzyme from papaya latex, commercial (Sigma C8526), dialysed; monomer; acid-unfolded states in the assay
Test: isothermal titration calorimetry (two sets of independent sites)
Conditions: read-out: High affinity binding site / K1 (M^-1)
Excerpt: isothermal titration calorimetry (two sets of independent sites) on chymopapain

T1 sequence (P14080 135-352): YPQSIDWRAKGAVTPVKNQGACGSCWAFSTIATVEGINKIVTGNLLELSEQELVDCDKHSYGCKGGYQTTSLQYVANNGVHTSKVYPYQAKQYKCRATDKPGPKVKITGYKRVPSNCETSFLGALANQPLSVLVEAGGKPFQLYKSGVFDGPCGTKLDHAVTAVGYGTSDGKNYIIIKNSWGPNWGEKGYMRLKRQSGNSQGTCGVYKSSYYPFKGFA

Kd: 2940 nM
Structure (SMILES): O=S(=O)(O)c1cccc2cccc(Nc3ccccc3)c12 [1-anilino-8-naphthalene sulfonate]
